Data set [1] has as its target T1, human PR (progesterone receptor) (Homo sapiens, UniProt P06401).
T1 construct: expressed in transfected cells; host or cells: HEK293 (293-PR lysate)
T1 sequence (P06401 1-933): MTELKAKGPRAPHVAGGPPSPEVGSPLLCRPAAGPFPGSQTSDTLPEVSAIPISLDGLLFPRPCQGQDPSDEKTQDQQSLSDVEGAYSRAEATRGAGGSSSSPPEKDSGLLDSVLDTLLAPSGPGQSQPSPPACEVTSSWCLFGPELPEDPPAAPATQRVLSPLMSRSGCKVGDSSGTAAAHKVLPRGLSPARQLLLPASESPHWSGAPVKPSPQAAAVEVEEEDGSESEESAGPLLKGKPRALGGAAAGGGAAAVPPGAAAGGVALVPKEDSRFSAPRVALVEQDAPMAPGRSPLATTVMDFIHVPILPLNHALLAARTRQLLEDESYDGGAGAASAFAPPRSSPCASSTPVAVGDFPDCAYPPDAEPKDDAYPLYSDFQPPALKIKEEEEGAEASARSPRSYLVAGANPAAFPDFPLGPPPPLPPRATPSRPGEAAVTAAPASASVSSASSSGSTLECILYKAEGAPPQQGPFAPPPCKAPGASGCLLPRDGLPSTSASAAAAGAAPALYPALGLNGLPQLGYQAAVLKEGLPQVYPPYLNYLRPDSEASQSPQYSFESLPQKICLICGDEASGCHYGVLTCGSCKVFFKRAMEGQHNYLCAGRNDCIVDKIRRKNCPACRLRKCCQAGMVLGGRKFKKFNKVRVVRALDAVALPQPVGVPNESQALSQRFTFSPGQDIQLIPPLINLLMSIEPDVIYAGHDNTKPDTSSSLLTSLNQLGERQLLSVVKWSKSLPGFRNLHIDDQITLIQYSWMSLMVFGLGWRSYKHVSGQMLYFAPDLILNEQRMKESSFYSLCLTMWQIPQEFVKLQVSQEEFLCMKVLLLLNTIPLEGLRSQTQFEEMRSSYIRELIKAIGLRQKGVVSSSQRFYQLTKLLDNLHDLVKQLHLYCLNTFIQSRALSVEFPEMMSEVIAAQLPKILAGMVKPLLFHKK
The experiment in a line: Nuclear hormone receptor competition binding assay, PR. To be noted: HEK293 lysate overexpressing human PR, [3H]-methyltrienolone; mean of n=7. How it is done:
Cell lysates from human embryonic kidney HEK293 cells overexpressing human GR (glucocorticoid receptor), AR (androgen receptor), MR (mineralocorticoid receptor), or PR (progesterone receptor) are used for receptor-ligand competition binding assays to determine Ki values.
Briefly, steroid receptor competition binding assays are run in a buffer containing 20 mM Hepes buffer (pH=7.6), 0.2 mM EDTA, 75 mM NaCl, 1.5 mM MgCl2, 20% glycerol, 20 mM sodium molybdate, 0.2 mM DTT (dithiothreitol), 20 μg/ml aprotinin and 20 μg/ml leupeptin. Typically, steroid receptor binding assays include radio-labeled ligands, such as 0.3 nM [^3H]-dexamethasone for GR binding, 0.36 nM [^3H]-methyltrienolone for AR binding, 0.25 nM [^3H]-aldosterone for MR binding, and 0.29 nM [^3H]-methyltrienolone for PR binding, and either 20 μg 293-GR lysate, 22 μg 293-AR lysate, 20 μg 293-MR lysate or 40 μg 293-PR lysate per well. Assays are typically run in 96-well format. Competing test compounds are added at various concentrations ranging from about 0.01 nM to 10 μM. Non-specific binding is determined in the presence of 500 nM dexamethasone for GR binding, 500 nM aldosterone for MR binding, or 500 nM methyltrienolone for AR and PR binding. […] After an incubation of 2 hours, plates are read in a Wallac Microbeta counter. […]

Data set [2] deals with serum osteocalcin in male Swiss-Webster mice. The experiment in a line: Serum osteocalcin assay. As to conditions: oral, seven days, 3 mg/Kg/day Compound (I) vs 10 mg/Kg/day prednisolone, serum 24 h after last dose. In kind it is in vivo, mouse. The source says:
Bone loss/osteoporosis and the resulting increased risk of fracture is a common and significant adverse effect that results from glucocorticoid therapy. Glucocorticoid induced osteoporosis is believed to result, at least in part, from an inhibition of bone formation. The measurement of serum osteocalcin, a biological marker of bone synthesis, is a recognized tool for assessing the adverse effects of glucocorticoid therapy on bone.
To assess the effects of Compound (I) on bone formation, Compound (I) is formulated in a vehicle comprising 5% carboxymethyl cellulose and 0.25% Tween 80 and administered orally via gavage to sixteen week old male Swiss-Webster mice (Harlan Industries, Indianapolis) for seven days. For comparison, prednisolone is administered orally in the same vehicle. Serum is collected 24 hours after the last dose and osteocalcin levels are determined using a competitive radioimmunoassay modified to a 96 well format. […] The filters are punched and the radioactivity quantitated on a gamma counter. Radioactivity detected on the filters from test samples is inversely proportional to serum osteocalcin concentration. […]

The Ki is a measure of affinity in units of concentration, obtained from inhibition or displacement. The low end stands for a stronger hold on the target, the high end for a looser hold on the target. The compound `CC/C(=C1\c2ccc(F)cc2OCc2ncccc21)c1cccc(NS(C)(=O)=O)c1` [Compound (I), (E)-N-{3-[1-(8-Fluoro-11H-10-oxa-1-aza-dibenzo[a,d]cyclohepten-5-ylidene)-propyl]-phenyl}-methanesulfonamide] returned a Ki in data set [1] of around 32 nM. The “reduction in serum osteocalcin levels” value in data set [2] is given as “less reduction in serum osteocalcin levels than prednisolone”.

(Values after patent publication US8101761B2, “(E)-N-{3-[1-(8-fluoro-11H-10-OXA-1-AZA-dibenzo [A,D] cyclohepten-5ylidene)-propyl]-phenyl}-methanesulfonamide as glucocorticoid receptor modulator for the treatment of rheumatoid arthritis” (Eli Lilly and Company, priority 2008, dated 2012).)
